Measurements taken from PubChem BioAssay (NCI).
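Briefly, cells in 96-well plates were exposed to five compound concentrations for 48 h, and endpoints were estimated by linear interpolation. Here, GI50 denotes the concentration required for 50% inhibition of growth. TGI marks complete inhibition of growth.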

Tests used:
Test in all cases: NCI anticancer screen, dose series, 48 h
K-562 leukemia = tested on: K-562 leukemia
UACC-62 melanoma = tested on: UACC-62 melanoma
OVCAR-3 ovarian = tested on: OVCAR-3 ovarian
KM12 colon = tested on: KM12 colon
HOP-92 NSCLC = tested on: HOP-92 NSCLC
A549 NSCLC = tested on: A549 NSCLC
SN12C renal = tested on: SN12C renal
A498 renal = tested on: A498 renal
MDA-MB-435 = tested on: MDA-MB-435
PC-3 prostate = tested on: PC-3 prostate

Compound	TGI (K-562 leukemia) [µM]	TGI (UACC-62 melanoma) [µM]	TGI (OVCAR-3 ovarian) [µM]	TGI (KM12 colon) [µM]	TGI (HOP-92 NSCLC) [µM]	TGI (A549 NSCLC) [µM]	TGI (SN12C renal) [µM]	TGI (A498 renal) [µM]	GI50 (UACC-62 melanoma) [µM]	GI50 (OVCAR-3 ovarian) [µM]	GI50 (KM12 colon) [µM]	GI50 (A549 NSCLC) [µM]	GI50 (SN12C renal) [µM]	GI50 (K-562 leukemia) [µM]	GI50 (HOP-92 NSCLC) [µM]	GI50 (MDA-MB-435) [µM]	TGI (MDA-MB-435) [µM]	GI50 (PC-3 prostate) [µM]	TGI (PC-3 prostate) [µM]
CC(=O)OC1(Sc2ccccc2)CC2[C@H]3COC(C)(C)O[C@H]3CC[C@@]2(C)CC1=O (some centres undefined)	> 100	> 100	> 100	> 100	86.1	> 100	> 100	–	–	–	–	–	–	–	–	–	–	–	–
Cc1nc2ccccc2c(=O)n1/N=C(\N=Nc1ccc(Cl)cc1)c1cccc(-c2ccco2)c1	> 100	87	–	–	55.4	> 100	> 100	> 100	–	–	–	–	–	–	–	–	–	–	–
S=C1SCC2CCCN12 (centres undefined)	> 100	> 100	–	> 100	> 100	> 100	> 100	> 100	–	–	–	–	–	–	–	–	–	–	–
Cc1c(C)c2cc3c(=O)c(CCl)coc3c(C)c2oc1=O	> 100	> 100	> 100	> 100	–	> 100	> 100	> 100	–	–	–	–	–	–	–	–	–	–	–
N.N.N.N.N#N.N#N.[Cl-].[Os+6]	–	> 100	> 100	> 100	–	> 100	> 100	–	> 100	> 100	> 100	> 100	> 100	–	–	–	–	–	–
N#CC1=C(N)NC(=O)C(C#N)C12Nc1ccccc1S2 (centres undefined)	> 100	> 100	> 100	> 100	> 100	> 100	> 100	–	60.5	32.6	82	> 100	> 100	48.8	74	> 100	> 100	60.4	> 100
CC1(Cl)C(=O)NC(=O)N([C@H]2C[C@H](O)[C@@H](CO)O2)C1N=[N+]=[N-] (some centres undefined)	> 100	> 100	> 100	> 100	> 100	> 100	> 100	> 100	–	–	–	–	–	–	–	–	–	–	–
COc1ccc2c(c1OC)C(=O)C2	–	> 100	–	> 100	–	> 100	> 100	–	–	–	–	–	–	–	–	–	–	–	–
COc1ccccc1/C=C1\C(=O)N(C(=O)Cc2ccccc2)N=C1C	> 100	–	> 100	> 100	–	> 100	> 100	–	–	–	–	–	–	–	–	–	–	–	–
CC1=CC(=O)NP(=O)(Oc2ccc(Cl)cc2)N1 (centres undefined)	> 100	> 100	> 100	> 100	> 100	> 100	> 100	> 100	–	–	–	–	–	–	–	–	–	–	–
CN(c1cccc(C(=O)O)c1)c1cc(O/N=[N+](\[O-])N(C)C)c([N+](=O)[O-])cc1[N+](=O)[O-]	> 100	> 100	> 100	> 100	–	> 100	> 100	–	> 100	> 100	> 100	> 100	> 100	78.8	–	> 100	> 100	> 100	> 100
CC(C)(C)C1=CC(=N/N=c2\scc(-c3ccccc3)n2Cc2ccccc2)C=C(C(C)(C)C)C1=O	> 100	> 100	> 100	–	–	> 100	> 100	> 100	–	–	–	–	–	–	–	–	–	–	–
Cc1nc(-n2nc(-c3ccccc3)cc2-c2ccccc2)sc1C(=O)CC(=O)C(=O)Nc1ccc(Cl)c(Cl)c1	> 100	> 100	> 100	> 100	–	> 100	> 100	> 100	–	–	–	–	–	–	–	–	–	–	–
N#CN1CC[C@@H]2CC3(CCC2C1)OCCO3 (some centres undefined)	> 100	> 100	> 100	> 100	> 100	> 100	> 100	> 100	–	–	–	–	–	–	–	–	–	–	–
COCN1COCN(C)C1=O	> 100	> 100	> 100	> 100	> 100	> 100	> 100	> 100	–	–	–	–	–	–	–	–	–	–	–
O=C1NC(c2ccccc2)(c2ccccc2)C(=O)N1CCCCCCN1C(=O)NC(c2ccccc2)(c2ccccc2)C1=O	> 100	> 100	> 100	> 100	19.9	> 100	> 100	> 100	–	–	–	–	–	–	–	–	–	–	–
Cn1cc(-c2ccc3c4ccccc4n(C)c3c2)c2ccccc21	> 100	> 100	> 100	> 100	–	> 100	> 100	> 100	–	–	–	–	–	–	–	–	–	–	–
N[C@H]1CCC[C@@H](O)C1O (some centres undefined)	> 100	> 100	> 100	> 100	–	> 100	> 100	> 100	–	–	–	–	–	–	–	–	> 100	–	> 100
